Active and inactive are the calls of the source. The rule behind the calls is not given here.
Assays:
[1] = Solubility of compound in PBS/10% DMSO at 2.5 to 25 umol/L by UV-Vis spectroscopic method; type: physicochemical; details: buffer
[2] = Solubility of compound in DMSO at 2.5 to 25 umol/L by UV-Vis spectroscopic method; type: physicochemical
[3] = tested on: Escherichia coli; test: Antibacterial activity against recombinant bioluminescence Escherichia coli harboring pHK724/pHK555 at 20 uM preincubated in dark for 30 mins followed by red light irradiation at 1620 J/cm2 for 180 mins by luminometry; type: functional, organism-based
[4] = tested on: Staphylococcus aureus; test: Effect on viability of Staphylococcus aureus ATCC 29213 at 20 uM after 30 mins in absence of light by […]; type: organism-based; details: in vivo, 0.5 h
[5] = tested on: Staphylococcus aureus; test: Antibacterial activity against Staphylococcus aureus ATCC 29213 using PVP encapsulated compound at 20 uM preincubated in dark for 30 mins followed by red light irradiation at 270 J/cm2 for 30 mins by […] relative to control; type: functional, organism-based
[6] = Photostability in PBS at 2 ml measured after 30 mins of red light irradiation at 150 mW/cm2 by UV-Vis spectroscopic method; type: physicochemical; details: buffer, 0.5 h
[7] = Induction of singlet oxygen generation in DMF assessed as DPBF decay at 0.5 mmol/L measured after 7 mins of LED irradiation at 9 mW/cm2; type: functional
[8] = Solubility of PVP encapsulated compound in PBS at 2.5 to 25 umol/L by UV-Vis spectroscopic method; type: physicochemical; details: buffer
[9] = tested on: Escherichia coli; test: Effect on viability of recombinant bioluminescence Escherichia coli harboring pHK724/pHK555 using PVP encapsulated compound at 20 uM after 30 mins in absence of light by luminometry; type: organism-based; details: in vivo, 0.5 h
[10] = tested on: Escherichia coli; test: Effect on viability of recombinant bioluminescence Escherichia coli harboring pHK724/pHK555 at 20 uM after 30 mins in absence of light by luminometry; type: organism-based; details: in vivo, 0.5 h
[11] = tested on: Staphylococcus aureus; test: Effect on viability of Staphylococcus aureus ATCC 29213 using PVP encapsulated compound at 20 uM after 30 mins in absence of light by […]; type: organism-based; details: in vivo, 0.5 h
[12] = tested on: Escherichia coli; test: Antibacterial activity against recombinant bioluminescence Escherichia coli harboring pHK724/pHK555 at 20 uM using PVP encapsulated compound preincubated in dark for 30 mins followed by red light irradiation at 1620 J/cm2 for 180 mins by luminometry; type: functional, organism-based
[13] = Induction of singlet oxygen generation in PBS assessed as DPBF decay using PVP encapsulated compound at 0.5 mmol/L measured after 7 mins of LED irradiation at 9 mW/cm2; type: functional
[14] = Induction of singlet oxygen generation in PBS/DMSO assessed as DPBF decay at 0.5 mmol/L measured after 7 mins of LED irradiation at 9 mW/cm2; type: functional
[15] = tested on: Staphylococcus aureus; test: Antibacterial activity against Staphylococcus aureus ATCC 29213 at 20 uM preincubated in dark for 30 mins followed by red light irradiation at 270 J/cm2 for 30 mins by […] relative to control; type: functional

Structure (SMILES) | solubility [1] | solubility [2] | Activity [3] | Activity [4] | Activity [5] | Stability [6] | Activity [7] | solubility [8] | Activity [9] | Activity [10] | Activity [11] | Activity [12] | Activity [13] | Activity [14] | Activity [15]
CC(C)NS(=O)(=O)c1ccc(Oc2cc3c(cc2Oc2ccc(S(=O)(=O)NC(C)C)cc2)-c2nc-3nc3[nH]c(nc4nc(nc5[nH]c(n2)c2cc(Oc6ccc(S(=O)(=O)NC(C)C)cc6)c(Oc6ccc(S(=O)(=O)NC(C)C)cc6)cc52)-c2cc(Oc5ccc(S(=O)(=O)NC(C)C)cc5)c(Oc5ccc(S(=O)(=O)NC(C)C)cc5)cc2-4)c2cc(Oc4ccc(S(=O)(=O)NC(C)C)cc4)c(Oc4ccc(S(=O)(=O)NC(C)C)cc4)cc32)cc1 | Insoluble | Soluble | Active | Non-Toxic | Active | Stable | 96% | Soluble | Non-Toxic | Non-Toxic | Non-Toxic | inactive | 74% | 4% | 
CCN(CC)S(=O)(=O)c1ccc(Oc2cc3c(cc2Oc2ccc(S(=O)(=O)N(CC)CC)cc2)-c2nc-3nc3[nH]c(nc4nc(nc5[nH]c(n2)c2cc(Oc6ccc(S(=O)(=O)N(CC)CC)cc6)c(Oc6ccc(S(=O)(=O)N(CC)CC)cc6)cc52)-c2cc(Oc5ccc(S(=O)(=O)N(CC)CC)cc5)c(Oc5ccc(S(=O)(=O)N(CC)CC)cc5)cc2-4)c2cc(Oc4ccc(S(=O)(=O)N(CC)CC)cc4)c(Oc4ccc(S(=O)(=O)N(CC)CC)cc4)cc32)cc1 | Insoluble | Soluble | inactive | Non-Toxic | Active | Stable | 93% | Soluble | Non-Toxic | Non-Toxic | Non-Toxic | inactive | 68% | 1% | >3 deltalog10CFU/ml
COc1ccc(NS(=O)(=O)c2ccc(Oc3cc4c(cc3Oc3ccc(S(=O)(=O)Nc5ccc(OC)cc5)cc3)-c3nc-4nc4[nH]c(nc5nc(nc6[nH]c(n3)c3cc(Oc7ccc(S(=O)(=O)Nc8ccc(OC)cc8)cc7)c(Oc7ccc(S(=O)(=O)Nc8ccc(OC)cc8)cc7)cc63)-c3cc(Oc6ccc(S(=O)(=O)Nc7ccc(OC)cc7)cc6)c(Oc6ccc(S(=O)(=O)Nc7ccc(OC)cc7)cc6)cc3-5)c3cc(Oc5ccc(S(=O)(=O)Nc6ccc(OC)cc6)cc5)c(Oc5ccc(S(=O)(=O)Nc6ccc(OC)cc6)cc5)cc43)cc2)cc1 | Insoluble | Soluble | Active | Non-Toxic | Active | Stable | 92% | Soluble | Non-Toxic | Non-Toxic | Non-Toxic | inactive | 59% | 4% | >3 deltalog10CFU/ml
